The structures appear in SMILES notation. Bounds are passed on as bounds.

Data set [1] has as its target T1, PI3Kγ (p101/p110γ protein) (Homo sapiens, UniProt P48736).
T1 construct: HA; made in house; host or cells: Spodoptera frugiperda (Sf9) cells, baculovirus co-infection
Briefly: PI3Kγ In Vitro Kinase Assay. It counts as biochemical. Particulars: purified recombinant p101/p110γ with G protein β1/γ2 subunits; 20 μM ATP, 25 μM PIP2; 20 minutes at room temperature. Summed up: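 Reactions ran 20 min at room temperature, pairing lipid micelles (25 μM PIP2, 300 μM PE, 0.02% Na-cholate, 10 mM MgCl2) with 20 μM ATP including [γ-32P]ATP. The enzyme was recombinant p101/p110γ (2.7 nM) with G protein β1/γ2 (57.7 nM). [32P]PIP3 product was stopped with H3PO4, filtered and scintillation counted.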

T1 sequence (P48736 whole entry, species assumed): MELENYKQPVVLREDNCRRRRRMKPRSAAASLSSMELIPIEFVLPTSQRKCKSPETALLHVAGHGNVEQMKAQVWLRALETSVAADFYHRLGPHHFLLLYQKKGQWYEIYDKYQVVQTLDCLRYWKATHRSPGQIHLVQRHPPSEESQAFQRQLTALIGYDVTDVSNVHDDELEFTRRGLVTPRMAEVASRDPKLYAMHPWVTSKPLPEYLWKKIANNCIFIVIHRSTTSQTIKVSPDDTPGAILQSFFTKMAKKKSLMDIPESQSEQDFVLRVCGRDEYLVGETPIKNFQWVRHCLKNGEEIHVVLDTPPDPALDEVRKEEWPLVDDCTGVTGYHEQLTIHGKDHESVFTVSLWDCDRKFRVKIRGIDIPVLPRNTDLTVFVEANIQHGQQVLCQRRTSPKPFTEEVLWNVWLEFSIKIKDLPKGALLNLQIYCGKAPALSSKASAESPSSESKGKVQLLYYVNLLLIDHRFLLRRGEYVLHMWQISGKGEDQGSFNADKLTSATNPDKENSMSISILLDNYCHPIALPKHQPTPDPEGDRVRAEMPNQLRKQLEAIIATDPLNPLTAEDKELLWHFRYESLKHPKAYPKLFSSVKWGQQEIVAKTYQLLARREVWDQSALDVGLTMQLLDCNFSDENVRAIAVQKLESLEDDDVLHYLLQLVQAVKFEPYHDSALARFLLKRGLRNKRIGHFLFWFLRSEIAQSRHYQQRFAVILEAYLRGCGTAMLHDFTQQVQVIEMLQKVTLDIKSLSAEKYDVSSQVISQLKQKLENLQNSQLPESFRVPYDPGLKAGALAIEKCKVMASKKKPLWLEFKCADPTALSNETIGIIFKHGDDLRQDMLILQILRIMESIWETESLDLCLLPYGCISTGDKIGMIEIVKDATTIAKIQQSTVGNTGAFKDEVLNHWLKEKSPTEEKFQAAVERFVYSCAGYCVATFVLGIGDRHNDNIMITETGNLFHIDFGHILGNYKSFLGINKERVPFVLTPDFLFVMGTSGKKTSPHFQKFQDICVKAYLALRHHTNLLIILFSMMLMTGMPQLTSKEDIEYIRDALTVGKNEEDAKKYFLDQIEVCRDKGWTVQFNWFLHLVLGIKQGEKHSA
T1 sequence (Q8WYR1 whole entry partner, species assumed): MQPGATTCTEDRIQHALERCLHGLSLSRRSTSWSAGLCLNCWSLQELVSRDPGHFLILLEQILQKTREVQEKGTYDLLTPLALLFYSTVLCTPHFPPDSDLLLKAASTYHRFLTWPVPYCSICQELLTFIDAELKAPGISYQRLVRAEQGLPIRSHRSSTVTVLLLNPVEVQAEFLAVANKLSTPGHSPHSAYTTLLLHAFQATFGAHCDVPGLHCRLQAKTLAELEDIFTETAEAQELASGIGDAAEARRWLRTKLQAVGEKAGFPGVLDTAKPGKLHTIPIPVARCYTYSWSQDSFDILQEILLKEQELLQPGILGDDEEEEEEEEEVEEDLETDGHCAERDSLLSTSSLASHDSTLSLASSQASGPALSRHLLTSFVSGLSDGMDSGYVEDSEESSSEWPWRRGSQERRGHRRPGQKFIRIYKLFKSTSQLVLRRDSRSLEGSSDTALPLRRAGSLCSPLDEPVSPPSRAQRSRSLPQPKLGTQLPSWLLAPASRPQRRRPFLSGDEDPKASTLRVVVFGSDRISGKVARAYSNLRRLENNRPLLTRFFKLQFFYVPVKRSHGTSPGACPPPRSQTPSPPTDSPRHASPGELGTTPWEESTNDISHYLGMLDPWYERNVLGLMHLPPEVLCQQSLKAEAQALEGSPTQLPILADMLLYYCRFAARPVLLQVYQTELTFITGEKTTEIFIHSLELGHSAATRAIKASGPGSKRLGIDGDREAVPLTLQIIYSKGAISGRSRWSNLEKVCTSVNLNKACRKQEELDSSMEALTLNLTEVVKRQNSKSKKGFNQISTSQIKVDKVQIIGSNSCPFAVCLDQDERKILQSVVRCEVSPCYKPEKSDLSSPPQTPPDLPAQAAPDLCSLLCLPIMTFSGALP

As to `Cc1cccc(CN2C(=O)COc3ccc(C=C4SC(=S)NC4=O)cc32)c1C` [Example 98, 4-(2,3-Dimethyl-benzyl)-6-(4-oxo-2-thioxo-thiazolidin-5-ylidenemethyl)-4H-benzo[1,4]oxazin-3-one], the melting point (in general, the temperature, or range, at which the solid turns liquid) was above 300 °C. Also, the IC50 (commonly the concentration needed to halve the response being measured) in data set [1] is 5 nM.
Consider `Cc1ccc(C)c(CN2C(=O)COc3ccc(C=C4SC(=S)NC4=O)cc32)c1` [Example 99, 4-(2,5-Dimethyl-benzyl)-6-(4-oxo-2-thioxo-thiazolidin-5-ylidenemethyl)-4H-1,4-benzoxazin-3-one], for which the melting point was above 300 °C. Also, the IC50 in data set [1] came out at 18 nM.
On the same counts, the results for `O=C1NC(=S)SC1=Cc1ccc2c(c1)N(CCc1ccc(Br)cc1)C(=O)CO2` [Example 102, 4-[2-(4-Bromo-phenyl)-ethyl]-6-(4-oxo-2-thioxo-thiazolidin-5-ylidenmethyl)-4H-benzo[1,4]oxazin-3-one] are 274 to 276 °C and 2 nM.
`O=C1NC(=S)SC1=Cc1ccc2c(c1)N(CCc1ccc(Cl)c(Cl)c1)C(=O)CO2` [Example 103, 4-[2-(3,4-Dichloro-phenyl)-ethyl]-6-(4-oxo-2-thioxo-thiazolidin-5-ylidenmethyl)-4H-benzo[1,4]oxazin-3-one] displayed a melting point of 267 to 269 °C. In addition, in data set [1], the IC50 worked out at 4 nM.
Take `O=C1NC(=S)SC1=Cc1ccc2c(c1)N(CCc1ccc(C(F)(F)F)cc1)C(=O)CO2` [Example 104, 6-(Oxo-2-thioxo-thiazolidin-5-ylidenmethyl)-4-[2-(4-trifluoromethyl-phenyl)-ethyl]-4H-benzo[1,4]oxazin-3-one]: the melting point was in the range of 253 to 255 °C. Further, in data set [1], the IC50 is 2 nM.
The corresponding values for `O=C1NC(=S)SC1=Cc1ccc2c(c1)N(CCc1ccc(Cl)cc1Cl)C(=O)CO2` [Example 105, 4-[2-(2,4-Dichloro-phenyl)-ethyl]-6-(4-oxo-2-thioxo-thiazolidin-5-ylidenmethyl)-4H-benzo[1,4]oxazin-3-one] are 267 to 269 °C and 5 nM.
The corresponding values for `O=C1NC(=S)SC1=Cc1ccc2c(c1)N(CCc1cccc(C(F)(F)F)c1)C(=O)CO2` [Example 106, 6-(Oxo-2-thioxo-thiazolidin-5-ylidenmethyl)-4-[2-(3-trifluoromethyl-phenyl)-ethyl]-4H-benzo[1,4]oxazin-3-one] are 241 to 243 °C and 9 nM.
The corresponding values for `O=C1NC(=S)SC1=Cc1cc(Cl)c2c(c1)N(CCc1ccc(C(F)(F)F)cc1)C(=O)CO2` [Example 107, 8-Chloro-6-(oxo-2-thioxo-thiazolidin-5-ylidenmethyl)-4-[2-(4-trifluoromethyl-phenyl)-ethyl]-4H-benzo[1,4]oxazin-3-one] are 275 to 277 °C and 72 nM.
`O=C1NC(=S)SC1=Cc1ccc2c(c1)N(CCc1ccccc1C(F)(F)F)C(=O)CO2` [Example 108, 6-(Oxo-2-thioxo-thiazolidin-5-ylidenmethyl)-4-[2-(2-trifluoromethyl-phenyl)-ethyl]-4H-benzo[1,4]oxazin-3-one] registered a melting point of 283 to 286 °C. Besides, the IC50 in data set [1] is 4 nM.
Compound `O=C1NC(=S)SC1=Cc1ccc2c(c1)N(Cc1cccc(-c3ccncc3)c1)C(=O)CO2` [Example 114, 6-(4-Oxo-2-thioxo-thiazolidin-5-ylidenemethyl)-4-(3-pyridin-4-yl-benzyl)-4H-benzo[1,4]-oxazin-3-one] returned a melting point of 297 to 299 °C. Also, the IC50 in data set [1] is 5 nM.
On the same counts, the results for `O=C1NC(=S)SC1=Cc1ccc2c(c1)N(CCc1ccc(Oc3ccccc3)cc1)C(=O)CO2` [Example 129, 6-(4-Oxo-2-thioxo-thiazolidin-5-ylidenemethyl)-4-[2-(4-phenoxy-phenyl)-ethyl]-4H-1,4-benzoxazin-3-one] are 220 to 224 °C and 49 nM.
The corresponding values for `COc1cc(CCN2C(=O)COc3ccc(C=C4SC(=S)NC4=O)cc32)cc(OC)c1` [Example 130, 4-[2-(3,5-Dimethoxy-phenyl)-ethyl]-6-(4-oxo-2-thioxo-thiazolidin-5-ylidenemethyl)-4H-benzo[1,4]oxazin-3-one] are 267 to 269 °C and 3 nM.
On the same counts, the results for `CC(C)(C)c1ccc(CCN2C(=O)COc3ccc(C=C4SC(=S)NC4=O)cc32)cc1` [Example 131, 4-[2-(4-tert-Butyl-phenyl)-ethyl]-6-(4-oxo-2-thioxo-thiazolidin-5-ylidenemethyl)-4H-benzo[1,4]-oxazin-3-one] are 283 to 285 °C and 39 nM.
For the compound `CN(C)c1ccc(CCN2C(=O)COc3ccc(C=C4SC(=S)NC4=O)cc32)cc1` [Example 132, 4-[2-(4-Dimethylaniino-phenyl)-ethyl]-6-(4-oxo-2-thioxo-thiazolidin-5-ylidenemethyl)-4H-benzo[1,4]-oxazin-3-one], the melting point was 266 to 268 °C. In addition, the IC50 in data set [1] turned out to be 12 nM.
Compound `O=C1NC(=S)SC1=Cc1ccc2c(c1)N(CCc1ccc(F)c(F)c1)C(=O)CO2` [Example 133, 4-[2-(3,4-Difluoro-phenyl)-ethyl]-6-(4-oxo-2-thioxo-thiazolidin-5-ylidenemethyl)-4H-benzo[1,4]oxazin-3-one] showed a melting point of 263 to 266 °C. For the same compound, the IC50 in data set [1] is 5 nM.
On the same counts, the results for `O=C1NC(=S)SC1=Cc1ccc2c(c1)N(CCc1ccc(Cl)cc1)C(=O)CO2` [Example 134, 4-[2-(4-Chloro-phenyl)-ethyl]-6-(4-oxo-2-thioxo-thiazolidin-5-ylidenemethyl)-4H-1,4-benzoxazin-3-one] are 278 to 280 °C and 5 nM.
On the same counts, the results for `O=C1NC(=S)SC1=Cc1ccc2c(c1)N(CCc1cccc(Cl)c1)C(=O)CO2` [Example 135, 4-[2-(3-Chloro-phenyl)-ethyl]-6-(4-oxo-2-thioxo-thiazolidin-5-ylidenemethyl)-4H-1,4-benzoxazin-3-one] are 280 to 282 °C and 5 nM.
The corresponding values for `COc1cccc(CCN2C(=O)COc3ccc(C=C4SC(=S)NC4=O)cc32)c1` [Example 137, 4-[2-(3-Methoxy-phenyl)-ethyl]-6-(4-oxo-2-thioxo-thiazolidin-5-ylidenemethyl)-4H-1,4-benzoxazin-3-one] are 233 to 236 °C and 3 nM.
Compound `Cc1ccc(CCN2C(=O)COc3ccc(C=C4SC(=S)NC4=O)cc32)cc1` [Example 138, 6-(4-Oxo-2-thioxo-thiazolidin-5-ylidenemethyl)-4-(2-p-tolyl-ethyl)-4H-1,4-benzoxazin-3-one] displayed a melting point of 267 to 269 °C. In data set [1], the IC50 is 10 nM.
Take `O=C1NC(=S)SC1=Cc1ccc2c(c1)N(OCc1ccc(C(F)(F)F)cc1)C(=O)CO2` [Example 207, 6-(4-Oxo-2-thioxo-thiazolidin-5-ylidenemethyl)-4-(4-trifluoromethyl-benzyloxy)-4H-benzo[1,4]oxazin-3-one]: the melting point is above 300 °C. The IC50 in data set [1] is 2 nM.
The corresponding values for `O=C1NC(=S)SC1=Cc1ccc2c(c1)N(OCC1CCCCC1)C(=O)CO2` [Example 208, 4-Cyclohexylmethoxy-6-(4-oxo-2-thioxo-thiazolidin-5-ylidenemethyl)-4H-benzo[1,4]oxazin-3-.one] are 249 to 250 °C and 2 nM.
In turn, `CC(C)(C)c1cc(CON2C(=O)COc3ccc(C=C4SC(=S)NC4=O)cc32)cc(C(C)(C)C)n1` [Example 209, 4-(2,6-Di-tert-butyl-pyridin-4-ylmethoxy)-6-(4-oxo-2-thioxo-thiazolidin-5-ylidenemethyl)-4H-benzo[1,4]oxazin-3-one] returned a melting point above 300 °C. The 50% inhibitory concentration (IC50) in data set [1] was 74 nM.

These data come from patent US7205295B2, “Benzoxazin-3-ones and derivatives thereof as therapeutic agents” (Warner-Lambert Company LLC, priority 2002, dated 2007).
